One experiment deals with BCV Kakegawa strain. Briefly: Contact of BCV with catechin (EGCg) before inoculation of MDBK cells, TCID50 by cell denaturation effect. The class given is cell-based, bovine coronavirus. As to conditions: 1 mg/ml EGCg. As to the method: BCV Kakegawa strain with a 50% tissue culture infectious dose (TCID50) of 1.8×10^8/ml and 1 mg/ml of catechin (EGCg: procured from Pharma Foods International Co., Ltd.) were contacted at 25° C. or 37° C. for 30, 60 or 90 minutes respectively, and a 10-fold dilution series was then produced with MEM.
After the cells were washed three times with PBS, 5% FBS-containing MEM was added in an amount of 500 μl/well, and incubation was conducted for 72 hours. Subsequently, the cells infected with the virus were identified with a cell denaturation effect to measure TCID50.

The test system of a further experiment is BVDV(ATCC VR524). In words: Contact of BVDV with catechin (EGCg) before inoculation of MDBK cells, detection of BVDV-derived DNA by RT-PCR. The class given is cell-based, bovine viral diarrhea virus. The note with it: 1 mg/ml catechin (EGCg), incubation 6 days. As to the method:
The cells were washed three times with PBS, and 5% FBS-containing MEM was added thereto. Incubation was further conducted at 37° C. for 6 days.
After completion of the incubation, a DNA derived from BVDV in the MDBK cells was detected by RT-PCR to confirm whether or not the cells were infected with the virus.

Experiment [1] relates to bovine coronavirus (BCV) Kakegawa strain and Mebus strain. As to conditions: 1, 5, 10, 20 or 30 mmol/l reduced glutathione; MDBK cells; supernatant at 24, 48, 72 and 96 hours; FIGS. 1 and 2.
Procedure: Madin Darby Bovin Kidney (MDBK) cells (ATCC CCL-22) was incubated with a 48-well plate such that the cells were 90% confluent, and then washed twice with a phosphate buffered saline (PBS).
Each of bovine coronavirus (BCV) Kakegawa strain (procured from Nippon Zenyaku Kogyo Co., Ltd.) [2.56 to 256 hemagglutinin (HA) titer/25 μl] and Mebus strain (ATCC VR-874) (0.064 and 0.64 HA titers/25 μl) at various concentrations, these strains being diluted with fetal bovine serum (FBS)-free Minimum Essential Medium (MEM) [Science, 122, 501 (1952)], was inoculated in an amount of 200 μl/well, and incubated at 37° C. for 90 minutes while moving a plate at intervals of 15 minutes. After the culture solution was washed three times with PBS, 500 μl/well of 5% FBS-containing MEM containing 1, 5, 10, 20 or 30 mmol/l of reduced glutathione was added thereto, and the mixture was further incubated at 37° C. During the incubation, 100 μl of the supernatant was recovered in 24, 48, 72 and 96 hours to measure a hemagglutinin (HA) titer.
The HA titer was measured by adding 25 μl of PBS containing 0.03% BSA to each well, adding 25 μl of the BCV culture supernatant thereto by multiple dilution, adding 0.8% mouse immobilization red cells thereto and measuring an agglutination reaction of red cells after 3 hours. […]

Turning to `O=C(O[C@@H]1Cc2c(O)cc(O)cc2O[C@@H]1c1cc(O)c(O)c(O)c1)c1cc(O)c(O)c(O)c1` [EGCg, epigallocatechin gallate], the “10^(n) TCID50/ml, EGCg-treated virus” value with BCV Kakegawa strain (contact 30 min, temperature cell empty (row between 25° C. and 37° C.), control 8.25) is recorded as 4.25 10^(n) TCID50/ml; with BCV Kakegawa strain (contact at 25° C. for 30 min, control 7.25), 5.75 10^(n) TCID50/ml; in the experiment on BCV Kakegawa strain (contact at 37° C. for 60 min, control 7.75), <2.75 10^(n) TCID50/ml; in the experiment with BCV Kakegawa strain (contact at 37° C. for 90 min, control 6.50), <2.00 10^(n) TCID50/ml. Also, the “BVDV-derived DNA in MDBK cells by RT-PCR” value in the experiment with BVDV(ATCC VR524) (contact at 37° C. for 30, 60 or 90 minutes) is given as “became undetected depending on the catechin treatment time”; in the experiment on BVDV(ATCC VR524) (contact at 37° C. for 90 minutes), “not detected at all”.
In the case of `N[C@@H](CCC(=O)N[C@@H](CS)C(=O)NCC(=O)O)C(=O)O` [reduced glutathione, γ-L-Glu-L-Cys-Gly], the “growth of coronavirus (hemagglutinin (HA) titer of culture supernatant)” value in experiment [1] is reported as “effect of inhibiting growth of coronavirus”.

For the origin of these results see patent US7332475B2 (priority 2003, dated 2008).
